Tests used:
[1] = Stability of daptomycin reconstituted to 1 mg/ml in normal saline or 5% dextrose, stored at room and refrigerated temperature; assay type: physicochemical; details: solutions of daptomycin and dextrose, 24 h
Method: Next, the solutions were stored at room temperature (approximately 25°C) and refrigerated temperatures and assayed at the 6 h and 24 h timepoints.

[2] = Stability of daptomycin reconstituted in buffered diluents and diluted in 5% dextrose (appearance of degradation products); assay type: physicochemical; details: dissolved in 5% dextrose solution
Source text: The effectiveness of the buffered diluents in suppressing the appearance of degradation products is shown below in Table 2: Table 2: […]

**Q.** Which potency loss ([1]; refrigerated temperature) does the source give for daptomycin here?
**A.** about 5%

**Q.** And the potency loss ([1]; room temperature)?
**A.** 17%

**Q.** What about the degradation ([2]; 24 h at 25°C) of the same substance?
**A.** 15-20%

**Q.** What about the degradation ([2]; 7 days at 5°C) of the same substance?
**A.** 15-20%

— patent publication EP0386951A2 (ELI LILLY AND COMPANY, priority 1989, dated 1990)
